From PubChem BioAssay AID1963839 (Molecular Pharmacology Branch, DTP, NCI, 2024)
Where “and” joins values, the source holds several entries; their conditions need not be identical. Equal values may be shown once.

System: 817829-284-R-J1-PDC complex spheroid viability
Assay: Anticancer human tumor 817829-284-R-J1-PDC patient-derived colon adenocarcinoma cell line growth inhibition [POLQ]
Settings: for viability, T/C: stronger effect = lower value
Description: Multicellular complex tumor spheroid response to Polymerase (POL) inhibitors (novobiocin, ART-558, RP6685) in combination with a variety of drugs and investigational agents in selected tumor cell lines
The POL inhibitors (novobiocin, ART-558, and RP6685) were evaluated both individually and in combination with standard of care and investigational anticancer small molecules within a complex spheroid model of solid tumors. . Complex spheroids include a stromal component modeled by human endothelial cells (HUVEC) and fibroblasts modeled by human mesenchymal stem cells (MSCs). The concentration ranges selected for each drug and investigational agent were based upon clinically achievable concentrations if the clinical Cmax of the agent was known.
Compounds. The drugs and investigational agents: novobiocin (NSC847541), ART-558 (NSC835418), RP-6685 (NSC848927), peposertib (NSC802822), ceralasertib (NSC780249), elimusertib (NSC800525), camonsertib (NSC841442), AZD-1390 (NSC803789), olaparib (NSC753686), talazoparib (NSC767125), rucaparib (NSC756644), sotorasib (NSC818433), MRTX-1133 (NSC836407), SN-38 (NSC673596), topotecan (NSC609699), epotoside (NSC141540), doxorubicin (NSC123127), gemcitabine (NSC613327), 5-fluorouracil (NSC19893), paclitaxel (NSC125973), vemurafenib (NSC761431), MSA-2 (NSC828583), SN-011 (NSC837082), adavosertib (NSC754352), prexasertib (NSC758257), carboplatin (NSC241240) and oxaliplatin (NSC266046), were obtained from the National Cancer Institute (NCI) Developmental Therapeutics Program Chemical Repository (21). The FDA-approved anticancer drug set is available from the Developmental Therapeutics Program at https://dtp.cancer.gov/organization/dscb/obtaining/. […] The stock solutions were prepared in dimethyl sulfoxide (DMSO, Sigma-Aldrich, St. Louis, MO, cat. D2650), except for the platinum compounds which were prepared in saline (Quality Biological, Gaithersburg, MD, cat. 114-055-101), at 800-fold the tested concentration and stored at -70 degrees C prior to their use. All drugs and investigational agents were tested over a range starting from a high concentration at or near the clinical Cmax and decreasing in half-log increments. If the clinical Cmax for an agent had not been determined, the highest concentration tested was 10 microM, except for SN-38, which was tested at a high concentration of 1 microM.
Cell Culture. All cells were maintained in an incubator at 37 degrees C and 5% CO2 with 95% humidity. The PDC lines were cultured according to standard operating procedures established by the NCI PDMR (https://pdmr.cancer.gov). Table 3 of the manuscript, lists the cell lines along with the number of the three cell types plated to form the mct-spheroids and media for tumor cell growth. After thawing, all PDC lines, except 997537-175-T-J1-PDC and 415267-285-R-J2-PDC, were cultured in Matrigel-coated flasks prepared with a working solution of 1X Ham's F-12 nutrient mix, without supplementation (Thermo Fisher Scientific, cat. 11765054), 100 U/mL penicillin-streptomycin (Thermo Fisher Scientific, cat. 15140122), and 2.5% Matrigel (Corning Inc., Corning, NY, cat. 354248) for the first three passages. The two PDC lines 997537-175-T-J1-PDC and 415267-285-R-J2-PDC were cultured on uncoated flasks. The 857933-349-R-J2-PDC line was cultured in 6C/Colon 1B media containing advanced DMEM/F-12 (Thermo Fisher Scientific, cat. 12634028), 10 mM HEPES (Thermo Fisher Scientific, cat. 15630080), 1X GlutaMAX supplement (Thermo Fisher Scientific, cat. 35050061), 0.1 mg/mL primocin (InvivoGen, San Diego, CA, cat. ant-pm-2), 10% defined fetal bovine serum, heat inactivated (HyClone Laboratories Inc., Logan, UT, cat. SH30070.03HI), 50% L-WRN conditioned media (ATCC, cat. CRL-3276), 1.25 mM N-Acetyl-L-cysteine (Sigma-Aldrich, cat. A9165), 10 mM nicotinamide (Sigma-Aldrich, cat. N0636), 1X B-27 supplement (Thermo Fisher Scientific, cat. 17504044), 1X N-2 supplement (Thermo Fisher Scientific, cat. […]

[1] = curve of first compound, second compound 0.0316 µM
[2] = curve of first compound, second compound 0.1 µM
[3] = curve of first compound, second compound 0.316 µM
[4] = curve of first compound, second compound 1 µM
[5] = curve of first compound, second compound 3.16 µM
[6] = curve of first compound, second compound 10 µM
[7] = second compound 0.0316 µM, first compound 0.0316 µM
[8] = second compound 0.0316 µM, first compound 0.1 µM
[9] = second compound 0.1 µM, first compound 0.0316 µM
[10] = second compound 0.1 µM, first compound 0.1 µM
[11] = second compound 0.316 µM, first compound 0.0316 µM
[12] = second compound 0.316 µM, first compound 0.1 µM
[13] = second compound 1 µM, first compound 0.0316 µM
[14] = second compound 1 µM, first compound 0.1 µM
[15] = second compound 3.16 µM, first compound 0.0316 µM
[16] = second compound 3.16 µM, first compound 0.1 µM
[17] = second compound 10 µM, first compound 0.0316 µM
[18] = second compound 10 µM, first compound 0.1 µM
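Note: spheroids exposed to compounds for 7 days.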
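Throughout, for viability, T/C: 100% = DMSO vehicle-treated spheroids.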

SMILES: C#Cc1c(F)ccc2cc(O)cc(-c3ncc4c(N5CC6CCC(C5)N6)nc(OCC56CCCN5CC(F)C6)nc4c3F)c12 (centres undefined) + Cc1cccc(N(C)C(=O)C2C(O)CCN2c2nc(C)cc(C(F)(F)F)c2C#N)c1
- IC50 [1]: > 10 µM
- IC50 [2]: > 10 µM
- IC50 [3]: > 10 µM
- IC50 [4]: 7.2 µM
- IC50 [5]: > 10 µM
- IC50 [6]: 8.06 µM
- viability, T/C [7]: 104%
- viability, T/C [8]: 112%
- viability, T/C (second compound 0.0316 µM, first compound 0.316 µM): 85.5%
- viability, T/C (second compound 0.0316 µM, first compound 1 µM): 85.9%
- viability, T/C (second compound 0.0316 µM, first compound 3.16 µM): 112%
- viability, T/C (second compound 0.0316 µM, first compound 10 µM): 60.9%
- viability, T/C [9]: 93%
- viability, T/C [10]: 75.6%
- viability, T/C (second compound 0.1 µM, first compound 0.316 µM): 88%
- viability, T/C (second compound 0.1 µM, first compound 1 µM): 95.1%
- viability, T/C (second compound 0.1 µM, first compound 3.16 µM): 136%
- viability, T/C (second compound 0.1 µM, first compound 10 µM): 76%
- viability, T/C [11]: 62.5%
- viability, T/C [12]: 75.8%
- viability, T/C (second compound 0.316 µM, first compound 0.316 µM): 95%
- viability, T/C (second compound 0.316 µM, first compound 1 µM): 97.9%
- viability, T/C (second compound 0.316 µM, first compound 3.16 µM): 79.7%
- viability, T/C (second compound 0.316 µM, first compound 10 µM): 63.5%
- viability, T/C [13]: 94.7%
- viability, T/C [14]: 86.9%
- viability, T/C (second compound 1 µM, first compound 0.316 µM): 93%
- viability, T/C (second compound 1 µM, first compound 1 µM): 118%
- viability, T/C (second compound 1 µM, first compound 3.16 µM): 97%
- viability, T/C (second compound 1 µM, first compound 10 µM): 31.2%
- viability, T/C [15]: 108%
- viability, T/C [16]: 82.3%
- viability, T/C (second compound 3.16 µM, first compound 0.316 µM): 86.1%
- viability, T/C (second compound 3.16 µM, first compound 1 µM): 87%
- viability, T/C (second compound 3.16 µM, first compound 3.16 µM): 97.3%
- viability, T/C (second compound 3.16 µM, first compound 10 µM): 89.4%
- viability, T/C [17]: 99.7%
- viability, T/C [18]: 108%
- viability, T/C (second compound 10 µM, first compound 0.316 µM): 90.2%
- viability, T/C (second compound 10 µM, first compound 1 µM): 96.4%
- viability, T/C (second compound 10 µM, first compound 3.16 µM): 89.3%
- viability, T/C (second compound 10 µM, first compound 10 µM): 40.7%

SMILES: CC[C@@]1(O)C(=O)OCc2c1cc1n(c2=O)Cc2cc3c(CN(C)C)c(O)ccc3nc2-1 + COC1C(OC(N)=O)C(O)C(Oc2ccc3c(O)c(NC(=O)c4ccc(O)c(CC=C(C)C)c4)c(=O)oc3c2C)OC1(C)C
- IC50 [1]: 0.00486 µM
- IC50 [2]: 0.00613 µM
- IC50 [3]: 0.00558 µM
- IC50 [4]: 0.00753 µM
- IC50 [5]: 0.00795 µM
- IC50 [6]: 0.00589 µM
- viability, T/C (second compound 0.0316 µM, first compound 0.000316 µM): 80.6%
- viability, T/C (second compound 0.0316 µM, first compound 0.001 µM): 87.4%
- viability, T/C (second compound 0.0316 µM, first compound 0.00316 µM): 58.6%
- viability, T/C (second compound 0.0316 µM, first compound 0.01 µM): 32.5%
- viability, T/C [7]: 21.7%
- viability, T/C [8]: 16.1%
- viability, T/C (second compound 0.1 µM, first compound 0.000316 µM): 69.7%
- viability, T/C (second compound 0.1 µM, first compound 0.001 µM): 81.7%
- viability, T/C (second compound 0.1 µM, first compound 0.00316 µM): 76.2%
- viability, T/C (second compound 0.1 µM, first compound 0.01 µM): 30.9%
- viability, T/C [9]: 21.4%
- viability, T/C [10]: 15.7%
- viability, T/C (second compound 0.316 µM, first compound 0.000316 µM): 74.4%
- viability, T/C (second compound 0.316 µM, first compound 0.001 µM): 78.8%
- viability, T/C (second compound 0.316 µM, first compound 0.00316 µM): 57.8%
- viability, T/C (second compound 0.316 µM, first compound 0.01 µM): 40.8%
- viability, T/C [11]: 20.1%
- viability, T/C [12]: 17.3%
- viability, T/C (second compound 1 µM, first compound 0.000316 µM): 83.2%
- viability, T/C (second compound 1 µM, first compound 0.001 µM): 106%
- viability, T/C (second compound 1 µM, first compound 0.00316 µM): 84.1%
- viability, T/C (second compound 1 µM, first compound 0.01 µM): 38.6%
- viability, T/C [13]: 20.2%
- viability, T/C [14]: 16.2%
- viability, T/C (second compound 3.16 µM, first compound 0.000316 µM): 106%
- viability, T/C (second compound 3.16 µM, first compound 0.001 µM): 78.2%
- viability, T/C (second compound 3.16 µM, first compound 0.00316 µM): 99.8%
- viability, T/C (second compound 3.16 µM, first compound 0.01 µM): 38.8%
- viability, T/C [15]: 20.5%
- viability, T/C [16]: 18.4%
- viability, T/C (second compound 10 µM, first compound 0.000316 µM): 97.6%
- viability, T/C (second compound 10 µM, first compound 0.001 µM): 87.6%
- viability, T/C (second compound 10 µM, first compound 0.00316 µM): 69.3%
- viability, T/C (second compound 10 µM, first compound 0.01 µM): 34%
- viability, T/C [17]: 20.6%
- viability, T/C [18]: 19.1%

SMILES: CNCc1ccc(-c2[nH]c3cc(F)cc4c3c2CCNC4=O)cc1
- viability, T/C (compound 0.0316 µM): 86.8% and 88% and 73.1%
- viability, T/C (compound 0.1 µM): 81.9% and 77.7% and 81.3%
- viability, T/C (compound 0.316 µM): 63.4% and 89.9% and 53.7%
- viability, T/C (compound 1 µM): 68.6% and 81.8% and 58.3%
- viability, T/C (compound 3.16 µM): 51.3% and 64.6% and 58.9%
- viability, T/C (compound 10 µM): 47.6% (2×) and 40.2%
- IC50 (curve of compound): 6.53 µM and 6.3 µM and 9.45 µM

SMILES: Cc1cccc(N(C)C(=O)C2C(O)CCN2c2nc(C)cc(C(F)(F)F)c2C#N)c1 (centres undefined)
- viability, T/C (compound 10 µM): 99.5% [middle of 13 runs]
- IC50 (compound alone, run of 11/27/2023): > 10 µM
- IC50 (compound alone, run of 12/05/2023): > 10 µM
